Experimental data: ChEMBL document CHEMBL5108065 (J Med Chem, 2022)
Active and inactive are the calls of the source. The calls are words filed in the database; no cut-off is given here.

Assays:
[1] = test system: Plasmepsin X (Plasmodium falciparum); assay: Binding affinity to Plasmodium falciparum PMX assessed as dissociation constant by SPR analysis
[2] = target: Plasmepsin X (Plasmodium falciparum (isolate 3D7)) (UniProt Q8IAS0); conditions: Expi293F GnTI-
Description: Inhibition of Plasmodium falciparum recombinant C-terminal TEV cleavable 8his-tagged PMX by FRET assay

NIH3T3 = assay: Phototoxicity against mouse 3T3 cells by neutral red uptake assay; assay type: toxicity, cell-based
Plasmodium falciparum [3] = assay: Antimalarial activity against Plasmodium falciparum Dd2 harbouring Pf-crt, Pf-mdrl,Pf-dhfr, Pf-dhps mutated loci assessed as inhibition of parasite growth pretreated for 48 hrs followed by [3H]-hypoxanthine addition measured after 24 hrs by scintillation counting method; assay type: functional, organism-based
[4] = Intrinsic clearance in rat hepatocytes measured per 10^6 cells; assay type: ADME, cell-based, Hepatocyte
[5] = Genotoxicity in Han Wistar rat by micronucleus assay; assay type: toxicity
[6] = Toxicity in Han Wistar rat assessed as changes in ophthalmology at 250 to 1000 mg/kg, po administered every other day for 7 days; assay type: organism-based; conditions: in vivo, 168 h, dose 250-1000 mg/kg, time 7 day
[7] = Cardiotoxicity in anesthetized guinea-pig assessed as QRS widening at 90 nM; assay type: toxicity, Cavia porcellus; conditions: 0.09 µM
Plasmodium falciparum [8] = assay: Antimalarial activity against blood stage Plasmodium infected in NSG mouse model assessed as parasite recrudescence by measuring parasitemia at 50 mg/kg, po measured 96 hrs by flow cytometry; assay type: functional, organism-based
[9] = Drug metabolism in rat hepatocytes assessed as (S)-6-(2-chloro-3-((6-cyclopropylpyridin-3-yl)amino)phenyl)-2-imino-6-methyl-3-((2S,4S)-2-methyltetrahydro-2H-pyran-4-yl)tetrahydropyrimidin-4(1H)-one metabolite formation; assay type: ADME, cell-based, Hepatocyte
[10] = target: Potassium voltage-gated channel subfamily A member 5 (Homo sapiens, UniProt P22460); assay: Inhibition of Kv1.5 (unknown origin) by patch clamp method; assay type: toxicity
Chain of Potassium voltage-gated channel subfamily A member 5 (P22460 whole entry): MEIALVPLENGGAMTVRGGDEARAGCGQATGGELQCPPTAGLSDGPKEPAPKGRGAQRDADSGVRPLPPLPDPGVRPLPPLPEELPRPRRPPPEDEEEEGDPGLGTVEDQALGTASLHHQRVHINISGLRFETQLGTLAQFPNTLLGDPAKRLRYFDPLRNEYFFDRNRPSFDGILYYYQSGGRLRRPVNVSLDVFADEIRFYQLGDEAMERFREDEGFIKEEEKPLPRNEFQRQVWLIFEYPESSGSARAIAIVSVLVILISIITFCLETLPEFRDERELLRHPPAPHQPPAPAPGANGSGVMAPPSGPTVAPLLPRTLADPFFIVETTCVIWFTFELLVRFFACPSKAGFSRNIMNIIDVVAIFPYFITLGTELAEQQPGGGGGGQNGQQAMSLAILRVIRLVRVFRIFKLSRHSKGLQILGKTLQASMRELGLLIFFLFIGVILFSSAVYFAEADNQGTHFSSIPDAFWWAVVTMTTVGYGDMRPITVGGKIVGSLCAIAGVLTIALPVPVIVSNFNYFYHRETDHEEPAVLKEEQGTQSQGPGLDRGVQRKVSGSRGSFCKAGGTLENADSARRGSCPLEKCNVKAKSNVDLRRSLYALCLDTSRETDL

[11] = Drug metabolism in human hepatocytes assessed as (S)-6-(2-chloro-3-((6-cyclopropylpyridin-3-yl)amino)phenyl)-2-imino-6-methyltetrahydropyrimidin-4(1H)-one metabolite formation; assay type: ADME, cell-based, Hepatocyte
[12] = target: Voltage-gated inwardly rectifying potassium channel KCNH2 (Homo sapiens, UniProt Q12809); assay: Inhibition of hERG cardiac ion channel by patch clamp assay; assay type: toxicity
Chain of Voltage-gated inwardly rectifying potassium channel KCNH2 (Q12809 whole entry): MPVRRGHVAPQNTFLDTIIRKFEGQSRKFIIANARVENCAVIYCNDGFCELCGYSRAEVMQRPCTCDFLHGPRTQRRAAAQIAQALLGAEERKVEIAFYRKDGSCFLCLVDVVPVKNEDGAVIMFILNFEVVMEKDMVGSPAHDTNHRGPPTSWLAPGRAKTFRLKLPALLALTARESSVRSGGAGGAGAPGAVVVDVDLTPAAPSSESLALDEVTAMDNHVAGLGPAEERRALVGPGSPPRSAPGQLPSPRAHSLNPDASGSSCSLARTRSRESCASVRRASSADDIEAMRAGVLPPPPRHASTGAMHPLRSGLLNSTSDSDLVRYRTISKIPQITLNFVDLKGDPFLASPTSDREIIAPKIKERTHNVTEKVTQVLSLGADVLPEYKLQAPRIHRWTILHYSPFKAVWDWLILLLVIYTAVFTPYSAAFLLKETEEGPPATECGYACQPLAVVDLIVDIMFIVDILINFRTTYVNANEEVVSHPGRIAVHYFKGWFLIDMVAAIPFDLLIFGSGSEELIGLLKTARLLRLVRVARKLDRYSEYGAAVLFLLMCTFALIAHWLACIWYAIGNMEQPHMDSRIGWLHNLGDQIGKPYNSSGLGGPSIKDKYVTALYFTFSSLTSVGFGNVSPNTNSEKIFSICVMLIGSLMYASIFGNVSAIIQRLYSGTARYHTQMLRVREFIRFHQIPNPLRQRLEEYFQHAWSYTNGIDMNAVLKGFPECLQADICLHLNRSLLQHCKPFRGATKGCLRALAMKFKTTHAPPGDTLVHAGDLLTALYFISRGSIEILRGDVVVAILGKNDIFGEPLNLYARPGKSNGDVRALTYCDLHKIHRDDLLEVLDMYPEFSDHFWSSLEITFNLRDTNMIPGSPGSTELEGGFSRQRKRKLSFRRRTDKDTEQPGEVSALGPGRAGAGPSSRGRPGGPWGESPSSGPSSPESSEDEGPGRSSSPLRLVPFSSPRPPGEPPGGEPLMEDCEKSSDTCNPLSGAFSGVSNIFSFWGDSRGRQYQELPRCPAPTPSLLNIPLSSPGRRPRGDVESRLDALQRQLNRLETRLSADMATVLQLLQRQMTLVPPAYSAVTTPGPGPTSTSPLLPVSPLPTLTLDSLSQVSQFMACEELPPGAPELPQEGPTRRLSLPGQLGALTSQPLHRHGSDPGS

Plasmodium falciparum [13] = assay: Antimalarial activity against asexual blood stage Plasmodium falciparum 3D7 assessed as parasite growth inhibition by measuring parasitemia by LDH assay; assay type: functional, organism-based
[14] = target: Voltage-dependent L-type calcium channel subunit alpha-1C (Homo sapiens, UniProt Q13936); assay: Inhibition of Cav1.2 (unknown origin) cardiac ion channel by patch clamp assay; assay type: toxicity
Chain of Voltage-dependent L-type calcium channel subunit alpha-1C (Q13936 whole entry): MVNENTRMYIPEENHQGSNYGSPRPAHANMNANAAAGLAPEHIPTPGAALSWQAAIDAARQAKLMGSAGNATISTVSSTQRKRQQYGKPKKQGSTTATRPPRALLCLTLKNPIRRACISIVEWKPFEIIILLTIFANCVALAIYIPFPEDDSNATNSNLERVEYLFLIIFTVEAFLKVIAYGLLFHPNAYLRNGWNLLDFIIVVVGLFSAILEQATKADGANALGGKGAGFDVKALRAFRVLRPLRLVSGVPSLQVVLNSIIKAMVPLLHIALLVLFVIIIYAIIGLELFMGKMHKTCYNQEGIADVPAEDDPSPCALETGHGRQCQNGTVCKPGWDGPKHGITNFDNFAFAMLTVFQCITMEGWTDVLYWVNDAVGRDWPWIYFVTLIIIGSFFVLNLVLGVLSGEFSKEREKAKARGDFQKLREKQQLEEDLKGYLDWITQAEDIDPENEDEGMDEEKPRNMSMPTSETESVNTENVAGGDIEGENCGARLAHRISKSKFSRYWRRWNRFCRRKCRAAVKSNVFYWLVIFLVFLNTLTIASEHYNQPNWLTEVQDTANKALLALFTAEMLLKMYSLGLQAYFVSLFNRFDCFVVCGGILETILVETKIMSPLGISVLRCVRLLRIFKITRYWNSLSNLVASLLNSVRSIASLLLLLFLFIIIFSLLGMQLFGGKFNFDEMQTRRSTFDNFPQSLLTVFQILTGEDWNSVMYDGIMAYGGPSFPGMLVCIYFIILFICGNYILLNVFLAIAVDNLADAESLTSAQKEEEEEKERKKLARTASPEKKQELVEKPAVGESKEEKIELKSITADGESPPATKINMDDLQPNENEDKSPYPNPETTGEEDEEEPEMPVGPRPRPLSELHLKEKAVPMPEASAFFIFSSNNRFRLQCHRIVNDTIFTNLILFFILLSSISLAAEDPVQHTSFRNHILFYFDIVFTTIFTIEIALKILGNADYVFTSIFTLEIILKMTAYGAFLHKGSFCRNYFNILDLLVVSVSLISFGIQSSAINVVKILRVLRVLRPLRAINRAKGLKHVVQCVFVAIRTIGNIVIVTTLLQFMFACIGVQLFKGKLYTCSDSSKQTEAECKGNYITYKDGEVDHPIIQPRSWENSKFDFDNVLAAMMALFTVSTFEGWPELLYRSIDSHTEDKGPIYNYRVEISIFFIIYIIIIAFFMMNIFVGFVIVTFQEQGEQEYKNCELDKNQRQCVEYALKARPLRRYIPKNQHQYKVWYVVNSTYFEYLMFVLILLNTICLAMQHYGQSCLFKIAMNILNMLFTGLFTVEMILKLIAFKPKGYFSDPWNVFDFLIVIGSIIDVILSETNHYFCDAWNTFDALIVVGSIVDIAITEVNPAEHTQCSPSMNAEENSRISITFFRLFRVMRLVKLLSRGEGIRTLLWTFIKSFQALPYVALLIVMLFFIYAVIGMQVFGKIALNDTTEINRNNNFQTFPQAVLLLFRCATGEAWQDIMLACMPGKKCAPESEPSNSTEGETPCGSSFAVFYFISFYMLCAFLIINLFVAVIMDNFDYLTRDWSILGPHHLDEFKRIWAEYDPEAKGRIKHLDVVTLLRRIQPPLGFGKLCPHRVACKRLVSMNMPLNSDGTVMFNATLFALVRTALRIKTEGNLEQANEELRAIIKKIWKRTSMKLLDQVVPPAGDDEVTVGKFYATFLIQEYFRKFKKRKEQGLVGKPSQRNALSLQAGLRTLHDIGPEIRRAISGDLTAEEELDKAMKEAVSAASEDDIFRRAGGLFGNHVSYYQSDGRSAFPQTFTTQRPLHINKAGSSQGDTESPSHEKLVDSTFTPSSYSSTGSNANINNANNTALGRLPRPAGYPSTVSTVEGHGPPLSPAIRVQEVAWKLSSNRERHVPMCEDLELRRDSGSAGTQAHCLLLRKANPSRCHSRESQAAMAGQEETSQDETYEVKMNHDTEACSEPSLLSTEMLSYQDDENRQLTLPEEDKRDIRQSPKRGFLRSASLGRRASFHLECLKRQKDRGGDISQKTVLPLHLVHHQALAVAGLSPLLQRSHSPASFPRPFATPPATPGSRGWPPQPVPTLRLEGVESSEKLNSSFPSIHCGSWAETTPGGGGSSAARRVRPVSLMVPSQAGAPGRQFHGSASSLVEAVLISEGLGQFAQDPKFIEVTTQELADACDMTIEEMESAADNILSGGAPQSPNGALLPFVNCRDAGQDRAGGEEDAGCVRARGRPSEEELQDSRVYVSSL

Chain of Plasmepsin X (Plasmodium falciparum (isolate 3D7)) (Q8IAS0 whole entry): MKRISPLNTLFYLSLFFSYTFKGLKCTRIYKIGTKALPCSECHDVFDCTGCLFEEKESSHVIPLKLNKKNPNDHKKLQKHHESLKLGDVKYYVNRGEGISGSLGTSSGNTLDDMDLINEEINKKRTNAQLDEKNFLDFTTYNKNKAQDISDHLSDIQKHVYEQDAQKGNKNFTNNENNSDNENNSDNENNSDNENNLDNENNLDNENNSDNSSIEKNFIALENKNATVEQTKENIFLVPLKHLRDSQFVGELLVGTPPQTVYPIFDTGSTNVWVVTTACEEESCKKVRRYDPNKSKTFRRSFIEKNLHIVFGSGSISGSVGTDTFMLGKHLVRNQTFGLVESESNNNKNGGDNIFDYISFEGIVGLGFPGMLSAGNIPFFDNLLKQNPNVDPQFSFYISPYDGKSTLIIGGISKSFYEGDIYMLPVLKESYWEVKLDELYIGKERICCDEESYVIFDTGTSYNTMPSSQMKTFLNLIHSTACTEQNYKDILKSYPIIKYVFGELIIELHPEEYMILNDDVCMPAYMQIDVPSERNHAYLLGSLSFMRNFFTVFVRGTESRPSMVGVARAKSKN

Structure (SMILES)	Kd [1] [nM]	IC90 [2] [nM]	Activity (NIH3T3)	IC50 (Plasmodium falciparum [3]) [nM]	CLH [4] [µL/min]	Activity [5]	Activity [6]	Activity [7]	Activity (Plasmodium falciparum [8])	Drug metabolism [9]	IC50 [10] [nM]	Drug metabolism [11]	IC50 [12] [nM]	IC50 (Plasmodium falciparum [13]) [nM]	IC50 [14] [nM]
C[C@H]1C[C@@H](N2C(=N)N[C@](C)(c3cccc(NC(=O)c4cccc(C#N)c4)c3Cl)CC2=O)CCO1	5.5	52	Non-Toxic	18	66	Non-Toxic	Non-Toxic	Non-Toxic	–	–	–	–	–	–	–
C[C@H]1C[C@@H](N2C(=N)N[C@](C)(c3cccc(Nc4ccc(C5CC5)nc4)c3Cl)CC2=O)CCO1	–	–	–	–	–	–	–	–	Active	Metabolite_Detected	5000	Metabolite_Detected	14000	14	27000
